Test: Phase transition temperature (differential thermal analysis)
Type: physicochemical
Conditions: single phospholipid
Protocol: Phase transition temperature was determined by differential thermal analysis.

palmitoylstearoylphosphitadylcholine [PSPC]
phase transition temperature (found value) of phospholipid: 47.4 °C

steroylpalmitoylphosphitdylcholine [SPPC]
phase transition temperature (found value) of phospholipid: 44.0 °C
